Experimental data reported in patent US5684205A, “Use of substituted cyclopentane- di- and -triones” (Bayer Aktiengesellschaft, priority 1994, dated 1997).

What follows are compounds tested on airway epithelial cell line 4MBr-5 (assay: 36Cl chloride efflux inhibition in airway epithelial cell line 4MBr-5). Details: 20 min, 10 μg/ml test compound, 20 minutes efflux, 4MBr-5 cells, expressed as a percentage of the maximal inhibition observed with NPPB.
Format: cell-based
Description: This compound provides a suitable reference standard against which to judge other chloride channel blockers. […] In the test described below maximal inhibition of chloride efflux is observed at 300 μM, with 20% inhibition evident at the standard test concentration of 10 μg/ml.
The airway epithelial cell line 4MBr-5 was obtained from ATCC and cells were cultured in 35 mm diameter wells on six well plates until cell layers were confluent. Cells were loaded with Na^36 CI solutions at 2.5 μCi/well after washing the cell monolayer free of […] culture medium. Washing and loading were performed in Hepes buffer (pH 7.4) containing 130 mM NaCI, 5.4 mM KCI, 1.8 mM CaCI2, 1.0 mM NaH2 PO4, 0.8 mM MgSO4 and 5.5 mM glucose. After a loading period of 60 minutes the cell layer was rapidly washed with 50 mM Hepes in 241 mM sucrose containing […] MgSO4 and the buffer replaced with 2 ml of ^36 CI^- free buffer containing 10 μg/ml test compound, or vehicle control. (Test compound was also present for the final ten minutes of the loading procedure). After 20 minutes efflux was stopped and the radioactivity remaining in the cells determined by liquid scintillation spectrometry after lysis of the cells. After subtraction of the counts found in cells treated with vehicle the increased counts were compared to the corresponding value observed with NPPB and expressed as a percentage of the maximal inhibition.
Compound COc1ccc(C=C2C(=O)C(O)=C(c3ccccc3)C2=O)cc1 [2/24] has an inhibition at 10 µg/mL of 28.6%.
O=C1C(=Cc2ccc(Cl)cc2Cl)C(=O)C(c2ccccc2)=C1O [15/36] gave an inhibition at 10 µg/mL of 37.7%.
Work on O=C1C(=Cc2ccc(C(F)(F)F)cc2)C(=O)C(c2ccccc2)=C1O [16/37] yielded an inhibition at 10 µg/mL of 58.2%.
For O=C1C(=Cc2ccc(-c3ccccc3)cc2)C(=O)C(c2ccccc2)=C1O [17/38], the inhibition at 10 µg/mL was 83.5%.
COc1ccc(C2=C(O)C(=O)C(=Cc3ccccc3)C2=O)cc1 [18/1] was tested, and the inhibition at 10 µg/mL was 24%.
In the case of O=C1C(=Cc2ccccc2)C(=O)C(c2ccc(Cl)cc2)=C1O [19/39], the inhibition at 10 µg/mL is reported as 31.1%.
CCN(CC)c1ccc(C=C2C(=O)C(O)=C(c3ccccc3)C2=O)cc1 [20/40] was tested, and the inhibition at 10 µg/mL was 22.7%.
Compound O=C1C(=Cc2ccc(OCc3ccccc3)cc2)C(=O)C(c2ccccc2)=C1O [21/41] has an inhibition at 10 µg/mL of 50.6%.
Compound COc1ccc(C2=C(O)C(=O)C(=Cc3ccc(Cl)c(Cl)c3)C2=O)cc1 [22/42] has an inhibition at 10 µg/mL of 65%.
Work on O=C1C(=Cc2ccccc2O)C(=O)C(c2ccccc2)=C1O [23/43] yielded an inhibition at 10 µg/mL of 36.4%.
With O=C(O)c1cc([N+](=O)[O-])ccc1NCCCc1ccccc1 [NPPB, 2-(3-phenylpropyl)amino-5-nitrobenzoic acid, reference compound] the inhibition at 10 µg/mL was 20%.

Same assay, conditions: 20 min, 4MBr-5 cells, 36Cl efflux, read-out: concentration at which maximal inhibition of chloride efflux is observed
O=C(O)c1cc([N+](=O)[O-])ccc1NCCCc1ccccc1 [NPPB, 2-(3-phenylpropyl)amino-5-nitrobenzoic acid, reference compound] gave an IC (maximal) of 300 µM.
